Laboratory results as given in paper PMC7026498, “GABAA Receptor β2E155 Residue Located at the Agonist-Binding Site Is Involved in the Receptor Gating” (Frontiers in Cellular Neuroscience, 2020).

Key:
[1] = biological target: T1, GABAA receptor α1β2E155Cγ2L (β2 subunit) (Rattus norvegicus, UniProt P62813+P63138, P63138:E179C); experiment: whole-cell patch-clamp dose-response (extrapolated Hill fit) and single-channel recording; assay type: cell-based
T1 construct: gene Gabrb2; recombinant α1β2E155Cγ2L receptor in HEK293 cells; with GABAA receptor α1 and γ2L subunits
T1 sequence (P63138 26-474 E179C): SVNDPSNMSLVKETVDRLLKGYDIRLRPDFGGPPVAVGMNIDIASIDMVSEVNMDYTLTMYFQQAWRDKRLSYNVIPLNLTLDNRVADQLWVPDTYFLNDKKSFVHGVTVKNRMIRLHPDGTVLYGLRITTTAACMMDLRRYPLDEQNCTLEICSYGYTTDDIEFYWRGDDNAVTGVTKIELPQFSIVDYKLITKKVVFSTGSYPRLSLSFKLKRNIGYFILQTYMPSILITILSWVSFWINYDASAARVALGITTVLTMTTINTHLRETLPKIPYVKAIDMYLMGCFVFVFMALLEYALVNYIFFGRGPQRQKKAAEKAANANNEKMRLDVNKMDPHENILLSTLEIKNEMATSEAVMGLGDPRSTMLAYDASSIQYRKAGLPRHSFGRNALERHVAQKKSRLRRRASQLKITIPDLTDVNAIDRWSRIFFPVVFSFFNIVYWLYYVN
T1 sequence (P62813 28-455): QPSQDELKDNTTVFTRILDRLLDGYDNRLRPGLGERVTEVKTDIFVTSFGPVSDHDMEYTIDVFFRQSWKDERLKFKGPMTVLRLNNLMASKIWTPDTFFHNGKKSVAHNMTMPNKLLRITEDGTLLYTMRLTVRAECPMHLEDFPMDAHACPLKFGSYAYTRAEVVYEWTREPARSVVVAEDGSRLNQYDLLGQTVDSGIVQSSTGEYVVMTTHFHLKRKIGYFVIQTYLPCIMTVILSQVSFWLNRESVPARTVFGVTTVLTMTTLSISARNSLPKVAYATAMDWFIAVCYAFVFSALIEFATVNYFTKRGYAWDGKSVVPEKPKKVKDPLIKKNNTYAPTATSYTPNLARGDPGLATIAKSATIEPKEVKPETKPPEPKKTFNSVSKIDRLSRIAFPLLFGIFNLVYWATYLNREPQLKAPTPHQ
T1 sequence (P18508 39-466 partner): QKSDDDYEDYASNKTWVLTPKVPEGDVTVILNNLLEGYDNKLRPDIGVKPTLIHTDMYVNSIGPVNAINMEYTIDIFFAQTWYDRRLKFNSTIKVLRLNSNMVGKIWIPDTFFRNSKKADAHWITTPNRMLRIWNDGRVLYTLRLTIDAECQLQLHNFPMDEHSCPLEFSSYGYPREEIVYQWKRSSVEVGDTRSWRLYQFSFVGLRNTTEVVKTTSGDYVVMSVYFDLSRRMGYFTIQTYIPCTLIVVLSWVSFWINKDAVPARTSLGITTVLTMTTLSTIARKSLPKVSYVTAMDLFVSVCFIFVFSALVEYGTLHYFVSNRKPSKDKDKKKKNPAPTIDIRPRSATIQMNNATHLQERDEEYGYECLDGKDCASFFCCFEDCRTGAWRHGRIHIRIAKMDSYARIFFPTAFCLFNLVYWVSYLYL

[2] = biological target: T2, GABAA receptor α1β2γ2L (β2 subunit) (Rattus norvegicus, UniProt P62813+P63138); experiment: whole-cell patch-clamp dose-response; assay type: cell-based
T2 construct: gene Gabrb2; recombinant α1β2γ2L receptor in HEK293 cells; with GABAA receptor α1 and γ2L subunits
T2 sequence (P63138 26-474): as the sequence (P63138 26-474 E179C) above, with C154E counted along it
T2 sequence (P62813 28-455): as the sequence (P62813 28-455) above
T2 sequence (P18508 39-466 partner): as the sequence (P18508 39-466 partner) above

NCc1cc(=O)[nH]o1 [MSC, muscimol]
EC50 [1]: 12.5 mM
EC50 [2]: 0.009 mM
